Source: US9833433B1, “Compositions, methods of use, and methods of treatment” (priority 2013, dated 2017)

What was measured:
COX-2 mRNA = COX-2 mRNA by qPCR in NG108-15 cells; assay type: cell-based; settings: culture transfected with the control vector; 6 hrs after Δ^9-THC
[1] = test system: hippocampal LTP at CA3-CA1 and perforant path synapses; test: Hippocampal LTP (fEPSP recordings in slices, theta-burst stimulation); assay type: in vivo, mice; settings: 10 mg/kg once daily for 7 days; LTP 24 hr after last injection; CA3-CA1 and perforant path
Method: Hippocampal LTP both at CA3-CA1 and perforant path synapses were recorded in acutely hippocampal slices and induced by a theta-burst stimulation (TBS) as described previously (Hoffman et al., 2007).
Hippocampal slices were prepared from mice as described previously (Chen et al., 2002; Chen et al., 2012; Fan et al., 2010). Briefly, after decapitation, brains were rapidly removed and placed in cold oxygenated (95% O2, 5% CO2) artificial cerebrospinal fluid (ACSF) containing: 125.0 NaCl, 2.5 KCl, 1.0 MgCl2, 25.0 NaHCO3, 1.25 NaH2PO4, 2.0 CaCl2, 25.0 glucose, 3 pyruvic acid, and 1 ascorbic acid. Slices were cut at a thickness of 350-400 μm and transferred to a holding chamber in an incubator containing ACSF at 36° C. for 0.5 to 1 hour, and maintained in an incubator containing oxygenated ACSF at room temperature (˜22-24° C.) for >1.5 h before recordings. Slices were then transferred to a recording chamber where they were continuously perfused with 95% O2, 5% CO2-saturated standard ACSF at ˜32-34° C. Individual pyramidal and dentate granule neurons were viewed with an upright microscope (Olympus BX51WI) fitted with a 60× water-immersion objective and differential interference contrast (DIC) optics.
Field EPSP (fEPSP) recordings both at CA3-CA1 and perforant path synapses in response to stimuli at a frequency of 0.05 Hz were made using an Axoclamp-2B patch-clamp amplifier (Molecular Devices, CA) in bridge mode. Recording pipettes were pulled from borosilicate glass with a micropipette puller (Sutter Instrument), filled with artificial ACSF (2-4 MΩ). […]

GluA1, GluN2A, GluN2B = test: Immunoblot and surface biotinylation of glutamate receptor subunits in hippocampus; assay type: in vivo; settings: WT mice; Δ^9-THC for 7 days
Method: (§1) Western blot assay was conducted using specific antibodies (Table S1) to determine expressions of COX-2, glutamate receptor subunits, PSD-95, G-protein subunits, phosphoproteins, BACE1 and neprilysin in hippocampal tissue and/or in cultured cells as described previously (Chen et al., 2012). Surface biotinylation assays were performed to determine surface expression of glutamate receptor subunits in hippocampal slices as described previously (Fan et al., 2010).
Surface biotinylation assays were performed in hippocampal slices as described previously (Chen et al., 2006; Fan et al., 2010). Briefly, hippocampal slices were cut at thickness of 400 μm using a vibratome from mice that received vehicle or Δ^9-THC for 7 consecutive days, and then transferred to a six-well plate and incubated on ice for 1 h in carbogenated ACSF containing 500 μM Sulfo-NHS-SS-biotin (Thermo-Pierce, Rockford, Ill.). Collected tissue was then washed three times for 5 min with ice-cold ACSF containing 10 mM glycine, and was immediately homogenized in 800 μL ice-cold lysis buffer containing 20 mM Tris-HCl, pH 7.5, 1% Triton X-100, 50 mM NaCl, 1 mM EDTA, 0.1% sodium dodecyl sulfate, and a cocktail of protease inhibitors (Sigma, St. Louis, Mo.). After incubation on ice for 30 min, the homogenate was centrifuged at 18000 g at 4° C. for 10 min. Supernatants were collected. […]

[2] = test system: synaptic release of glutamate; test: Miniature spontaneous EPSCs (mEPSCs) in cultured hippocampal neurons; assay type: cell-based; settings: Δ^9-THC 3 μM; recorded 24 hrs after treatment
neprilysin (NEP) = test: Neprilysin expression in 5XFAD APP transgenic mice (immunoblot); assay type: in vivo; settings: TG mice
Method: as §1

Akt, ERK, and p38MAPK = test: Phosphorylation of Akt, ERK and p38MAPK in NG108-15 cells; settings: Δ^9-THC 30 μM

For `CCCCCc1cc(O)c2c(c1)OC(C)(C)[C@@H]1CCC(C)=C[C@@H]21` [Δ^9-THC, Δ^9-tetrahydrocannabinol], the “COX-2 mRNA expression in NG108-15 cells” value (COX-2 mRNA) was “increased expression of COX-2 mRNA”, the “hippocampal LTP after repeated Δ^9-THC exposure” value [1] was “decreased hippocampal LTP” and the “total and surface expressions of GluA1, GluN2A, GluN2B (immunoblot)” value (GluA1, GluN2A, GluN2B) was “significantly decreased”. The “synaptic release of glutamate (mEPSCs)” value [2] was “enhanced synaptic release of glutamate”, the “expression of neprilysin (NEP)” value (neprilysin (NEP)) was “increases expression of neprilysin (NEP)” and the “phosphorylation of Akt, ERK, and p38MAPK” value (Akt, ERK, and p38MAPK) was “induced phosphorylation of these signaling molecules”.
